Test results reported in paper PMC11887051, “Discovery of ONO-2920632 (VU6011887): A Highly Selective and CNS Penetrant TREK-2 (TWIK-Related K+ Channel 2) Preferring Activator In Vivo Tool Compound” (ACS Chemical Neuroscience, 2025).

Columns and labels:
[1] = rat plasma:brain level study (Kp, Kp,uu); format: in vivo; details: male, Sprague-Dawley, brain and plasma; for Kp at 2 h / Kp uu at 2 h: oral rat plasma:brain level study, 2 h after 3 mg/kg PO
Method: In vivo DMPK experimental:
Determination of brain to plasma ratio:
All animal study procedures were approved by the Institutional Animal Care and Use Committee and were conducted in accordance with the National Institutes of Health regulations of animal care covered in Principles of Laboratory Animal Care (National Institutes of Health). All rats were fasted overnight prior to testing. […]
At 15 min post dosing, blood sample was collected into chilled, K2EDTA anticoagulant-fortified tube and immediately placed on wet ice. The blood sample was then centrifuged (1700 rcf, 5 minutes, 4 °C) to obtain plasma sample. At the same post-administration time point, whole brain sample was obtained by rapid dissection, rinsed with PBS, and immediately frozen in individual tissue collection box (dry ice). All brain and plasma samples were stored at -80 °C until […]
Sample Analysis: Concentrations in plasma and brain homogenates were quantified by liquid chromatography tandem mass spectrometry (LC-MS/MS). Whole brains were homogenized in 3 mL of 70:30 IPA:water in a mini bead beater for 3 min, and centrifuged at 3,500 g for 5 min. 5 uL of the supernatant was diluted in 15 uL of blank plasma for quantification of the analytes. Plasma samples were centrifuged at 3,500 g for 5 min. A standard curve was generated by diluting the analytes DMSO stocks with blank plasma to obtain a final concentration of 10,000 ng/ml followed by a serial dilution down to 0.5 ng/ml. Quality controls were generated by a serial dilution of the 5,000 ng/ml standard curve solution in blank plasma to obtain 3 concentrations of 500, 50, and 5 ng/ml. 20 uL of brain diluted in plasma, plasma, blank plasma, standard curve and QC samples were loaded in a V-bottom 96-well plate. 120 uL of acetonitrile containing 0.05 uM carbamazepine (internal standard) was added to each well and the plate was centrifuged at 3,500 g for 5 min. 60 uL of the supernatant of each well (protein free) was transferred to a new 96-well plate containing 60 uL of water. The plates were sealed for analysis by LC-MS/MS.
Plasma and brain tissue samples originating from in vivo studies were analyzed by electrospray ionization using an AB Sciex Q-TRAP 5500 (Foster City, CA) that was coupled to a Shimadzu LC-20AD pump (Columbia, MD) and a Leap Technologies CTC PAL auto-sampler (Carrboro, NC). Analytes were separated by gradient elution using a C18 column (3 x 50 mm, 3 mm; Fortis Technologies Ltd, Cheshire, UK) that was thermostated at 40 °C. HPLC mobile phase A was 0.1% formic acid in water (pH unadjusted); mobile phase B was 0.1% formic acid in acetonitrile (pH […]
min, with an isocratic hold for 0.5 min, before transitioning to 10% B over 0.05 min. The column was re-equilibrated (1 min) before the next sample injection. The total run time was 2.55 min, and the HPLC flow rate was 0.5 ml/min. The source temperature was set at 500 °C, and mass spectral analyses were performed using a Turbo-Ion spray source in positive ionization mode (5.0-kV spray voltage) and using multiple-reaction monitoring of transitions specific for the analytes. All data were analyzed using AB Sciex Analyst 1.5.1 software.
Brain plasma concentration ratio (Kp) was calculated by dividing brain concentration by plasma concentration for each animal. Unbound brain to unbound plasma concentration ratio (Kp,uu) is calculated using the following formula: Kp,uu = (Brain ng/g x brain fu)/(plasma ng/ml x plasma fu).
For determination of the plasma concentration-time profile, compounds were formulated in methyl cellulose and administered as a 3 mg/kg PO dose to male C57BL/6 mouse or SD rat (n = 2). For the same determination, compounds were formulated in HP-β-CD and administered as a 0.1 mg/kg IV dose to male beagle dog (n = 2).
Plasma samples originating from in vivo studies were analyzed by electrospray ionization using a Q-TRAP 5500 (AB Sciex) that was coupled to a Prominence UFLC XR (Shimadzu Corporation). […]

[2] = rat predicted hepatic clearance (hepatic microsomes); format: in vitro ADME
Method: Intrinsic clearance: Human or rat hepatic microsomes (0.5 mg/mL) and 1 µM test compound were incubated in 100 mM potassium phosphate pH 7.4 buffer with 3 mM MgCl2 at 37 °C with constant shaking. After a 5 min preincubation, the reaction was initiated by the addition of NADPH (1 mM). At selected time intervals (0, 3, 7, 15, 25, and 45 min), aliquots were taken and subsequently placed into a 96-well plate containing cold acetonitrile with internal standard (50 ng/mL carbamazepine). Plates were then centrifuged at 3000 rcf (4 °C) for 10 min, and the supernatant was transferred to a separate 96-well plate and diluted 1:1 with water for LC/MS/MS analysis. The in vitro half-life ( 1/2, min, Eq. 1), intrinsic clearance (CLint, mL/min/kg, Eq. 2), and subsequent predicted hepatic clearance (CLhep, mL/min/kg, Eq. 3) was determined employing the […]
where k represents the slope from linear regression analysis of the natural log percent remaining of a test compound as a function of incubation time […]
(2) CLint = in vitroT1/2 x mg microsomes x gram liver x kg body wt ascale-up factors: of 20 (human) or 45 (rat) […]
where Qh (hepatic blood flow, mL/min/kg) is 21 (human) or 70 (rat).
LC/MS/MS Bioanalysis of Samples from Plasma Protein Binding and Intrinsic Clearance […]
Samples were analyzed on a Thermo Electron TSQ Quantum Ultra triple quad mass spectrometer (San Jose, CA) via electrospray ionization (ESI) with two Themo Electron Accella pumps (San Jose, CA), and a Leap Technologies CTC PAL autosampler (Carrboro, NC). Analytes were separated by gradient elution on a dual column system with two Thermo Hypersil Gold (2.1 x 30 mm, 1.9 µm) columns (San Jose, CA) thermostated at 40 °C. HPLC mobile phase A was 0.1% formic acid in water and mobile phase B was 0.1% formic acid in acetonitrile. The gradient started […]
for 0.2 min; returned to 10% B in 0.1 min. The total run time was 1.3 min and the HPLC flow rate was 0.8 mL/min. While pump 1 ran the gradient method, pump 2 equilibrated the alternate column isocratically at 10% B. Compound optimization, data collection, and processing was performed using Thermo Electron's QuickQuan software (v2.3) and Xcalibur (v2.0.7 SP1).

[3] = intravenous, 0.2 mg/kg, rat cassette PK study

## O=C(NCc1ccc(OC(F)(F)F)cc1Cl)c1ccc2nncn2c1 [Compound 20]
[1]; rat, dosing not given
  Kp uu: 0.078

## CS(=O)(=O)Nc1ccc(C(=O)NCc2ccc(Cl)cc2Cl)cc1 [Compound 13]
[2]
  rat CLhep (predicted hepatic clearance): 1.04 L/h/kg
[1]
  Kp at 2 h: 0.26
  Kp uu at 2 h: 0.15

## O=C(NCc1ccc(OC(F)(F)F)cc1F)c1ccc2ncnn2c1 [Compound 19b]
[2]
  rat CLhep (predicted hepatic clearance): 0.174 L/h/kg
[1]
  Kp at 2 h: 0.37
  Kp uu at 2 h: 0.38

## O=C(NCc1ccc(Br)cc1Cl)c1ccc(-c2ncn[nH]2)cc1 [Compound 14a]
[1]; [3]
  Kp at 15 min: 0.2
  Kp uu at 15 min: 0.36

## Cc1cc(OC(F)(F)F)ccc1CNC(=O)c1ccc2ncnn2c1 [Compound 19a]
[2]
  rat CLhep (predicted hepatic clearance): 0.342 L/h/kg
[1]
  Kp at 2 h: 0.5
  Kp uu at 2 h: 0.2
